Laboratory results reported in US20240270821A1, “GIP/GLP1/GCG TRI-RECEPTOR AGONISTS AND USES THEREOF” (priority 2023, published 2024).
Changes are numbered by the printed parent chain. Starred links: 1 amine or outer side, 2 acyl side, 3 side chain; linkers in the order of their positions; H or OH if unused. Non-standard residues stand in square brackets, D forms with d. Groups on a side chain read outwards from the residue. No end group written: not given here. *: point of attachment. C20 diacid = O=C(O)CCCCCCCCCCCCCCCCCCC(=O)*; C18 diacid = O=C(O)CCCCCCCCCCCCCCCCC(=O)*; αMePhe(2-F) = C[C@](N)(Cc1ccccc1F)C(=O)O; γGlu = O=C(O)[C@H](CCC(=O)[*:2])N[*:1]; NMeY = CN[C@@H](Cc1ccc(O)cc1)C(=O)O; αMe4Pal = C[C@](N)(Cc1ccncc1)C(=O)O; αMeF = C[C@](N)(Cc1ccccc1)C(=O)O; 4Pal = N[C@@H](Cc1ccncc1)C(=O)O; αMeL = CC(C)C[C@](C)(N)C(=O)O; Orn = NCCC[C@H](N)C(=O)O; AEEA = NCCOCCOCC(=O)O; Aib = CC(C)(N)C(=O)O

T1: hGIPR (Homo sapiens, UniProt P48546)
T1 sequence (P48546 22-466): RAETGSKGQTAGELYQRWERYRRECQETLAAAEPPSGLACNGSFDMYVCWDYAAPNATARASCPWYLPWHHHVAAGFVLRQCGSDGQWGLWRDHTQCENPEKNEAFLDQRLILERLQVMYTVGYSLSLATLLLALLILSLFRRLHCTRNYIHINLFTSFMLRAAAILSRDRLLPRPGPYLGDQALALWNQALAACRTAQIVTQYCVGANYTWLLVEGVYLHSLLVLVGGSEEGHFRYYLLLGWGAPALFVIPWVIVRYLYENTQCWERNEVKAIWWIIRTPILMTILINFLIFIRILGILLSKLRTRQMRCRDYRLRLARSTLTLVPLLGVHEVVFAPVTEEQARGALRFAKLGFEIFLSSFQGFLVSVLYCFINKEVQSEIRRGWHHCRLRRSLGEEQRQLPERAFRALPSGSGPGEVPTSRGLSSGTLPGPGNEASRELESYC

T2: human GIP receptor (human) (UniProt P48546)
T2 sequence (looked up): T1 sequence (P48546 22-466)

B1: Example 297 (peptide)
chain: [NMeY][Aib]QGT[αMeF]TSDYSSLLDKIAAK([AEEA-AEEA-γGlu-C20 diacid])AFIEYLLEGGPSSGEPPPSEG-NH2
B2: Example 290 (peptide)
chain: HXQGTXTSDYSILLDKKAAXAFIEYLIETGPSSGEPPPSEG
modifications: not fully specified; synthetic construct; SITE 2: note = 2-Aminoisobutyric Acid; SITE 6: note = alpha-methyl-2-fluoro-L-phenylalanine; SITE 17: note = Lysine is chemically modified through conjugation of the epsilon-amino group of the Lysine side chain with (2-[2-(2-Amino-ethoxy)-ethoxy]-acetyl)-(gamma-Glu)-CO-(CH2) 18-
B3: Example 294 (peptide)
chain: B2 chain with H1Y, X6F, L13X, I27L, T29G
modifications: synthetic construct; SITE 2: note = 2-Aminoisobutyric Acid; SITE 13: note = alpha-methyl-leucine; SITE 17: note = Lysine is chemically modified through conjugation of the epsilon-amino group of the Lysine side chain with (2-[2-(2-Amino-ethoxy)-ethoxy]-acetyl)2-(gamma-Glu)-CO-(CH2 )18-CO2H; SITE 20:
B4: Example 298 (peptide)
chain: B2 chain with T29A
modifications: not fully specified; synthetic construct; SITE 2: note = 2-Aminoisobutyric Acid; SITE 6: note = alpha-methyl-2-fluoro-L-phenylalanine; SITE 17: note = Lysine is chemically modified through conjugation of the epsilon-amino group of the Lysine side chain with (2-[2-(2-Amino-ethoxy)-ethoxy]-acetyl)-(gamma-Glu)-CO-(CH2) 18-
B5: Example 293 (peptide)
chain: Y[Aib]QGT[αMePhe(2-F)]TSDYSILLDKIAQK([AEEA-γGlu-C20 diacid])AFIEYLLEGGPSSGEPPPSEG-NH2

Legend:
[1] = biological target: Pro-Link-tagged Human GLP-1R (human) (UniProt P43220); assay: cell-based or functional assay
human GcgR = human GcgR (Homo sapiens, UniProt P47871); assay: Functional cAMP activity in the presence of 1% HSA; type: cell-based; settings: read-out: cAMP Rel EC50, hGcgR
human GLP1-R = human GLP1-R (Homo sapiens, UniProt P43220); assay: GLP1-R internalization assay in HEK293 cells; type: cell-based; settings: for EC50: HEK293 cells expressing SNAP-GLP-1R, read-out: GLP1R Internalization EC50; for Internalization % TOP: normalized to maximum concentration of GLP-1 (100%)
hGcgR = hGcgR (Homo sapiens, UniProt P47871); assay: Functional cAMP activation in the presence of 0.1% casein (no HSA); type: cell-based; settings: in the presence of 0.1% casein (no HSA); geometric mean; read-out: Relative cAMP EC50, hGcgR;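 also: intracellular cAMP rise after 30 min at 37 °C, read by HTRF against a cAMP standard curve, scaled from buffer only (0%) to maximal control ligand response (100%)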
hGIPR [2] = biological target: T1, hGIPR; assay: Functional cAMP activity in the presence of 1% HSA; type: cell-based; settings: read-out: cAMP Rel EC50, hGIPR
[3] = tested on: Intestinal organoid from Göttingen minipig jejunum tissue, 2D monolayer; assay: Cell based in vitro permeability (Papp) assay; type: in vitro ADME
Method in brief: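 Papp calculated from LC/MS peptide levels in apical and basal compartments. Basal sampling at 20 min with C10 present, across monolayers grown from dissociated minipig jejunal organoids in transwells.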

hGLP-1R [4] = biological target: T3, hGLP-1R (Homo sapiens, UniProt P43220); assay: Functional cAMP activity in the presence of 1% HSA; type: cell-based; settings: read-out: cAMP Rel EC50, hGLP-1R
hGLP-1R [5] = biological target: T3, hGLP-1R; assay: Functional cAMP activation in the presence of 0.1% casein (no HSA); type: cell-based; settings: in the presence of 0.1% casein (no HSA); geometric mean; read-out: Relative cAMP EC50, hGLP-1R;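 as to Relative cAMP EC50, hGIPR: intracellular cAMP rise after 30 min at 37 °C read by HTRF against a standard curve, scaled between buffer alone (0%) and top control ligand concentration (100%), four-parameter fit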;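 as to Relative cAMP EC50, hGLP-1R: intracellular cAMP rise after 30 min at 37 °C read by HTRF, normalized between buffer only (0%) and maximal control ligand (100%), four-parameter variable-slope fit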
hGIPR [6] = biological target: T1, hGIPR; assay: as above; type: cell-based; settings: in the presence of 0.1% casein (no HSA); geometric mean; read-out: Relative cAMP EC50, hGIPR
[7] = biological target: human glucagon receptor (human) (UniProt P47871); assay: cell-based or functional assay
hGLP-1R [8] = biological target: T3, hGLP-1R; assay: cell-based or functional assay
[9] = biological target: T2, human GIP receptor (human); assay: cell-based or functional assay

T3 sequence (P43220 24-463): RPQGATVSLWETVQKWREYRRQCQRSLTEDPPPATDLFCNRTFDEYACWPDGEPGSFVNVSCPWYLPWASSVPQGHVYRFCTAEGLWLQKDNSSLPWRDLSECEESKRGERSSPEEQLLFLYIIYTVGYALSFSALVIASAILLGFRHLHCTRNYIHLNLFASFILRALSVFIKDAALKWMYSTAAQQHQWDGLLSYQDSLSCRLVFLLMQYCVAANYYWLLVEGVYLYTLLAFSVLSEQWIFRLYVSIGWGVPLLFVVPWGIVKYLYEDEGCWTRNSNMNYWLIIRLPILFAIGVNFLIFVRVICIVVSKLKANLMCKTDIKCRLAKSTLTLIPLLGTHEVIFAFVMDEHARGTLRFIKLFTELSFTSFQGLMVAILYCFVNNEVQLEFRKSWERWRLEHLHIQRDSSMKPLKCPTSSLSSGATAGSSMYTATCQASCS
Pro-Link-tagged Human GLP-1R (human), sequence (P43220 24-463): as above
human GLP1-R, sequence (P43220 24-463): as above
human GcgR, sequence (P47871 26-477): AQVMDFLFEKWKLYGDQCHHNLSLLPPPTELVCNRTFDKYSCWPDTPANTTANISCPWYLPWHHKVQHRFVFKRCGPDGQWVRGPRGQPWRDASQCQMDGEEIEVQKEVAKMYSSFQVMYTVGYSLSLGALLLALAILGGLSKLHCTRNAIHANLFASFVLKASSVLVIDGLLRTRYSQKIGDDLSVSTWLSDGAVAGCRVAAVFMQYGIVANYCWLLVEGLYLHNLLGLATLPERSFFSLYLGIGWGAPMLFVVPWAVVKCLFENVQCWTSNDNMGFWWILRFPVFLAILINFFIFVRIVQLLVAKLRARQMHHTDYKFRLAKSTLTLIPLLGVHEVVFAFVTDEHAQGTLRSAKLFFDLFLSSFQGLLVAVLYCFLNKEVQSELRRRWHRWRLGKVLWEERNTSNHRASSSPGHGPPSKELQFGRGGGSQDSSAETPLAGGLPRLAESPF
hGcgR, sequence (P47871 26-477): as above
human glucagon receptor (human), sequence (P47871 26-477): as above

Molecule | % Stimulation Max [1] [%] | EC50 (human GcgR) [nM] | EC50 (human GLP1-R) [nM] | Internalization % TOP (human GLP1-R) [%] | EC50 (hGcgR) [nM] | EC50 (hGIPR [2]) [nM] | Relative Papp (Compared to internal standard) [3] | EC50 (hGLP-1R [4]) [nM] | EC50 (hGLP-1R [5]) [nM] | EC50 (hGIPR [6]) [nM] | Relative cAMP EC50 [7] [nM] | cAMP Rel EC50 (1% HSA) [7] [nM] | hGLP1R β-arrestin Rel EC50 [1] [nM] | Relative cAMP EC50 (hGLP-1R [8]) [nM] | cAMP Rel EC50 (1% HSA) (hGLP-1R [8]) [nM] | Relative cAMP EC50 [9] [nM] | cAMP Rel EC50 (1% HSA) [9] [nM] | cAMP Rel EC50 (in the presence of 1% HSA) [7] [nM] | cAMP Rel EC50 (in the presence of 1% HSA) (hGLP-1R [8]) [nM] | cAMP Rel EC50 (in the presence of 1% HSA) [9] [nM]
Tirzepatide (peptide) | 10.5 |  |  |  |  |  |  |  |  |  |  |  |  |  |  |  |  |  |  | 
H-Y[Aib]QGTFTSD[4Pal]SQ[αMeL]LDKK([AEEA-γGlu-C18 diacid])AQ[αMe4Pal]AFIEYLIE[Aib]GESSGAPPPSGE-NH2 [Example 227] |  | 937 | 114 | 59.4 | 4.22 | 39.7 | 0.42 | 418 | 2.34 | 0.17 |  |  |  |  |  |  |  |  |  | 
CC[C@H](C)[C@H](NC(=O)[C@H](Cc1ccccc1)NC(=O)[C@H](C)NC(=O)C(C)(C)NC(=O)[C@H](CCC(N)=O)NC(=O)[C@H](C)NC(=O)[C@H](CCCCNC(=O)COCCOCCNC(=O)CC[C@H](NC(=O)CCCCCCCCCCCCCCCCC(=O)O)C(=O)O)NC(=O)[C@H](CCCCN)NC(=O)[C@H](CC(=O)O)NC(=O)[C@H](CC(C)C)NC(=O)[C@](C)(CC(C)C)NC(=O)[C@H](CCCN)NC(=O)[C@H](CO)NC(=O)[C@H](Cc1ccccc1)NC(=O)[C@H](CC(=O)O)NC(=O)[C@H](CO)NC(=O)[C@@H](NC(=O)[C@H](Cc1ccccc1)NC(=O)[C@@H](NC(=O)CNC(=O)[C@H](CCC(N)=O)NC(=O)C(C)(C)NC(=O)[C@@H](N)Cc1ccc(O)cc1)[C@@H](C)O)[C@@H](C)O)C(=O)N[C@@H](CCC(=O)O)C(=O)N[C@@H](Cc1c[nH]c2ccccc12)C(=O)N[C@@H](CC(C)C)C(=O)N[C@@H](CC(C)C)C(=O)N[C@@H](CCC(=O)O)C(=O)NCC(=O)NCC(=O)N1CCC[C@H]1C(=O)N[C@@H](CO)C(=O)N[C@@H](CO)C(=O)NCC(=O)N[C@@H](C)C(=O)N1CCC[C@H]1C(=O)N1CCC[C@H]1C(=O)N1CCC[C@H]1C(=O)N[C@@H](CO)C(=O)NCC(=O)N[C@@H](CCC(=O)O)C(N)=O [Example 119] |  | 839 | 73.5 | 43.4 | 5.6 | 19.7 | 0.15 | 387 | 3.67 | 0.179 |  |  |  |  |  |  |  |  |  | 
H-Y[Aib]QGTFTSDYSR[αMeL]LDKK([AEEA-γGlu-C18 diacid])AQ[Aib]AFIEYLLEGGESSGAPPPSGS-NH2 [Example 361] |  | 987 | 50.4 | 73 | 2.73 | 46.3 | 0.10 | 376 | 2.08 | 0.214 |  |  |  |  |  |  |  |  |  | 
H-Y[Aib]QGTFTSDFS[Orn][αMeL]LDKK([AEEA-γGlu-C18 diacid])AQ[Aib]AFIEWLLEGGSSSGAPPPSGT-NH2 [Example 174] |  | 307 | 123 | 52.8 | 4.24 | 20.8 | 0.12 | 208 | 2.33 | 0.198 |  |  |  |  |  |  |  |  |  | 
H-Y[Aib]QGTFTSD[4Pal]SR[αMeL]LDKK([AEEA-γGlu-C18 diacid])AQ[Aib]AFIEYLIE[Aib]GESSGAPPPSGS-NH2 [Example 187] |  | 2970 | 17.2 | 57 | 14.8 | 15.6 | 0.48 | 178 | 1.11 | 0.111 |  |  |  |  |  |  |  |  |  | 
H-Y[Aib]QGTFTSDFS[Orn][αMeL]LDKK([γGlu-AEEA-γGlu-C18 diacid])AQ[Aib]AFIEYLLE[Aib]GPSSGAPPPSGS-NH2 [Example 193] |  | 1120 | 132 | 50.7 | 4.51 | 12.7 | 0.17 | 473 | 5.19 | 0.0609 |  |  |  |  |  |  |  |  |  | 
H-Y[Aib]QGTFTSDFS[Orn][αMeL]LDKK([AEEA-γGlu-C18 diacid])AQ[Aib]AFIEYLLE[Aib]GPSS[Aib]APPPSGS-NH2 [Example 238] |  | 334 | 32.1 | 38.2 | 2.78 | 8.78 | 0.06 | 262 | 2.71 | 0.0909 |  |  |  |  |  |  |  |  |  | 
B1 | 33.5 |  |  |  |  |  |  |  |  |  | 3.26 | 2320 | 60.2 | 2.96 | 1130 | 0.626 | 325 |  |  | 
B2 | 83.5 |  |  |  |  |  |  |  |  |  | 2.68 |  | 3.94 | 0.34 |  | 0.43 |  | 878 | 90 | 53.4
B3 | 35.3 |  |  |  |  |  |  |  |  |  | 1.07 |  | 27.7 | 2.16 |  | 0.318 |  | 518 | 554 | 54.1
B4 | 86.4 |  |  |  |  |  |  |  |  |  | 1.04 | 1570 | 3.29 | 0.277 | 70.9 | 0.138 | 41.3 |  |  | 
B5 | 54.6 |  |  |  |  |  |  |  |  |  | 4.01 |  | 11.9 | 0.994 |  | 0.0587 |  | 1740 | 295 | 9.63
